29 compounds from patent US10550105B2 (Ribon Therapeutics Inc., priority 2018, dated 2020) can be followed below.

The assay concerns the target PARP7 (Homo sapiens (Human), UniProt Q7Z3E1). Nature of the assay: Enzymatic assay for inhibition of PARP7: TR-FRET displacement of biotinylated Probe A from the TIPARP active site. The format is binding. The settings on record: Table A-1. In a few lines:
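Titrated compounds compete with the biotinylated probe; after an additional 30 min incubation at 25° C, time-delayed fluorescence (90 μs) is measured. Inhibition curves use a Hill coefficient that normally floats but may be held at 1.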
A general note: TR-FRET usually uses a lanthanide donor and a delayed reading to cut background.

Sequence of PARP7 (Q7Z3E1 whole entry): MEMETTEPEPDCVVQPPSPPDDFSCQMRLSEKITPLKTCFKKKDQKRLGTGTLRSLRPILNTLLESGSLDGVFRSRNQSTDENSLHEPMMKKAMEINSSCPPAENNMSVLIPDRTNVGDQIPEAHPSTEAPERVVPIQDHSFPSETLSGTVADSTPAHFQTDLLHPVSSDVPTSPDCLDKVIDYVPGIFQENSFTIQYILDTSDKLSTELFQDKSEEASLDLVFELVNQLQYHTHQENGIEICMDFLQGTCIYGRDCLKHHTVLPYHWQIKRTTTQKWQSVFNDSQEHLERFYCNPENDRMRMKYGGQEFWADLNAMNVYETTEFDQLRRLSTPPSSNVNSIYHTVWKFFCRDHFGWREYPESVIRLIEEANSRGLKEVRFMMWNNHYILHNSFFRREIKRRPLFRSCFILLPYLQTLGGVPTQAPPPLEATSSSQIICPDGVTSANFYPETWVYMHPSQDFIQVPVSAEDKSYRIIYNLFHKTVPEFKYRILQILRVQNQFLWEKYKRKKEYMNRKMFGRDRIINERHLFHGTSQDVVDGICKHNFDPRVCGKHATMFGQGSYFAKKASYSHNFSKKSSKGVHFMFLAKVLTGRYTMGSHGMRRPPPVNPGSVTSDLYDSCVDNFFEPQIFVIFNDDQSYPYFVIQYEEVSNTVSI

For `N#Cc1ccc(N2CCN(C(=O)c3cccc(OC[C@@H]4CCCN4c4cn[nH]c(=O)c4C(F)(F)F)c3)C(CO)C2)nc1` (some centres unmarked) [Example 33], the IC50 was < 100 nM.

With `N#Cc1ccc(N2CCN(C(=O)c3cccc(OC[C@@H]4CCCN4c4cn[nH]c(=O)c4C(F)(F)F)c3)CC2=O)nc1` [Example 34, 6-[2-oxo-4-[(3-[[(2S)-1-[6-oxo-5-(trifluoromethyl)-1,6-dihydropyridazin-4-yl]pyrrolidin-2-yl]methoxy]phenyl)carbonyl]piperazin-1-yl]pyridine-3-carbonitrile], the IC50 is < 100 nM.

With `CC[C@@H](COCCC(=O)N1CCN(c2ncc(C(F)(F)F)cn2)CC1)Oc1cn[nH]c(=O)c1C(F)(F)F` [Example 37, 5-[[(2S)-1-(3-Oxo-3-[4-[5-(trifluoromethyl)pyrimidin-2-yl]piperazin-1-yl]propoxy)butan-2-yl]oxy]-4-(trifluoromethyl)-2,3-dihydropyridazin-3-one], the IC50 was < 100 nM.

As for `N#Cc1ccc(N2CCN(C(=O)c3ccnc(OC[C@H]4c5ccccc5CN4c4cn[nH]c(=O)c4C(F)(F)F)n3)CC2)nc1` [Example 38 Isomer B, 6-[4-[(2-[[(1R)-2-[6-Oxo-5-(trifluoromethyl)-1,6-dihydropyridazin-4-yl]-2,3-dihydro-1H-isoindol-1-yl]methoxy]pyrimidin-4-yl)carbonyl]piperazin-1-yl]pyridine-3-carbonitrile], the IC50 is < 100 nM.

`N#Cc1ccc(N2CCN(C(=O)c3cccc(OCC4CCCCN4c4cn[nH]c(=O)c4C(F)(F)F)c3)CC2)nc1` (centres unmarked) [Example 40, 6-(4-[[3-([1-[6-oxo-5-(trifluoromethyl)-1,6-dihydropyridazin-4-yl]piperidin-2-yl]methoxy)phenyl]carbonyl]piperazin-1-yl)pyridine-3-carbonitrile]: the IC50 fell in the range of 100 to 1000 nM.

`N#Cc1ccc(N2CCN(C(=O)c3cccc(OCCNc4cn[nH]c(=O)c4C(F)(F)F)c3)CC2)nc1` [Example 41, 6-(4-[[3-(2-[[6-oxo-5-(trifluoromethyl)-1,6-dihydropyridazin-4-yl]amino]ethoxy)phenyl]carbonyl]piperazin-1-yl)pyridine-3-carbonitrile]: the IC50 is < 100 nM.

On to `N#Cc1ccc(N2CCN(C(=O)c3cccc(OCCOc4cn[nH]c(=O)c4C(F)(F)F)c3)CC2)nc1` [Example 42, 6-(4-[[3-(2-[[6-oxo-5-(trifluoromethyl)-1,6-dihydropyridazin-4-yl]oxy]ethoxy)phenyl]carbonyl]piperazin-1-yl)pyridine-3-carbonitrile], for which the IC50 is < 100 nM.

Consider `N#Cc1ccc(N2CCN(C(=O)c3ccc(OCCOc4cccc5c4CN(c4cn[nH]c(=O)c4C(F)(F)F)C5)cc3)CC2)nc1` [Example 43, 6-[4-([4-[2-([2-[6-oxo-5-(trifluoromethyl)-1,6-dihydropyridazin-4-yl]-2,3-dihydro-1H-isoindol-4-yl]oxy)ethoxy]phenyl]carbonyl)piperazin-1-yl]pyridine-3-carbonitrile], for which the IC50 was < 100 nM.

On to `O=c1[nH]ncc(N2Cc3cc(F)c(OCC4CCCNC4)cc3C2)c1C(F)(F)F` (centres unmarked) [Example 44, 5-[5-fluoro-6-(piperidin-3-ylmethoxy)-2,3-dihydro-1H-isoindol-2-yl]-4-(trifluoromethyl)-2,3-dihydropyridazin-3-one], for which the IC50 is < 100 nM.

Take `CC(=O)N1CCCC(COc2cc3c(cc2F)CN(c2cn[nH]c(=O)c2C(F)(F)F)C3)C1` (centres unmarked) [Example 45, 5-[5-[(1-acetylpiperidin-3-yl)methoxy]-6-fluoro-2,3-dihydro-1H-isoindol-2-yl]-4-(trifluoromethyl)-2,3-dihydropyridazin-3-one]: the IC50 is < 100 nM.

In the case of `N#Cc1ccc(N2CCN(C(=O)c3nccc(OCC4c5ccccc5CN4c4cn[nH]c(=O)c4C(F)(F)F)n3)CC2)nc1` (centres unmarked) [Example 46, 6-(4-[[4-([2-[6-oxo-5-(trifluoromethyl)-1,6-dihydropyridazin-4-yl]-2,3-dihydro-1H-isoindol-1-yl]methoxy)pyrimidin-2-yl]carbonyl]piperazin-1-yl)pyridine-3-carbonitrile], the IC50 was < 100 nM.

With `N#Cc1ccc(OC2CCC(NC(=O)COC[C@@H]3CCCN3c3cn[nH]c(=O)c3C(F)(F)F)CC2)nc1` (stereo partly drawn) [Example 47, N-[4-[(5-cyanopyridin-2-yl)oxy]cyclohexyl]-2-[[(2S)-1-[6-oxo-5-(trifluoromethyl)-1,6-dihydropyridazin-4-yl]pyrrolidin-2-yl]methoxy]acetamide], the IC50 is < 100 nM.

For `O=c1[nH]ncc(N2Cc3cc(F)c(OCC4CCCN4)cc3C2)c1C(F)(F)F` (centres unmarked) [Example 48, 5-[5-fluoro-6-(pyrrolidin-2-ylmethoxy)-2,3-dihydro-1H-isoindol-2-yl]-4-(trifluoromethyl)-2,3-dihydropyridazin-3-one], the IC50 was < 100 nM.

On to `CN1CCCC1COc1cc2c(cc1F)CN(c1cn[nH]c(=O)c1C(F)(F)F)C2` (centres unmarked) [Example 49, 5-[5-fluoro-6-[(1-methylpyrrolidin-2-yl)methoxy]-2,3-dihydro-1H-isoindol-2-yl]-4-(trifluoromethyl)-2,3-dihydropyridazin-3-one; formic acid], for which the IC50 is < 100 nM.

`CC(=O)N1CCCC1COc1cc2c(cc1F)CN(c1cn[nH]c(=O)c1C(F)(F)F)C2` (centres unmarked) [Example 50, 5-[5-[(1-acetylpyrrolidin-2-yl)methoxy]-6-fluoro-2,3-dihydro-1H-isoindol-2-yl]-4-(trifluoromethyl)-2,3-dihydropyridazin-3-one]: the IC50 is < 100 nM.

Take `N#Cc1ccc(N2CCN(C(=O)c3cccc(OC[C@@H]4C[C@H](O)CN4c4cn[nH]c(=O)c4C(F)(F)F)c3)CC2)nc1` [Example 51]: the IC50 was < 100 nM.

In the case of `N#Cc1ccc(N2CCN(C(=O)c3cccc(OC[C@@H]4C[C@@H](O)CN4c4cn[nH]c(=O)c4C(F)(F)F)c3)CC2)nc1` [Example 52], the IC50 is < 100 nM.

Consider `O=c1[nH]ncc(N2Cc3cc(F)c(OC4CCNC4)cc3C2)c1C(F)(F)F` (centres unmarked) [Example 53, 5-(5-fluoro-6-(pyrrolidin-3-yloxy)isoindolin-2-yl)-4-(trifluoromethyl)pyridazin-3(2H)-one], for which the IC50 is < 100 nM.

On to `CC(=O)N1CCC(Oc2cc3c(cc2F)CN(c2cn[nH]c(=O)c2C(F)(F)F)C3)C1` (centres unmarked) [Example 54, 5-(5-(1-acetylpyrrolidin-3-yloxy)-6-fluoroisoindolin-2-yl)-4-(trifluoromethyl)pyridazin-3(2H)-one], for which the IC50 was < 100 nM.

Turning to `CN1CCC(Oc2cc3c(cc2F)CN(c2cn[nH]c(=O)c2C(F)(F)F)C3)C1` (centres unmarked) [Example 55, 5-[5-fluoro-6-[(1-methylpyrrolidin-3-yl)oxy]-2,3-dihydro-1H-isoindol-2-yl]-4-(trifluoromethyl)-2,3-dihydropyridazin-3-one], the IC50 was < 100 nM.

For the compound `O=c1[nH]ncc(N2Cc3cc(F)c(OC4CCCNC4)cc3C2)c1C(F)(F)F` (centres unmarked) [Example 58, 5-[5-fluoro-6-(piperidin-3-yloxy)-2,3-dihydro-1H-isoindol-2-yl]-4-(trifluoromethyl)-2,3-dihydropyridazin-3-one], the IC50 is < 100 nM.

In the case of `O=c1[nH]ncc(N2Cc3ccc(F)cc3C2)c1Cl` [Example 59, 4-Chloro-5-(5-fluoro-2,3-dihydro-1H-isoindol-2-yl)-2,3-dihydropyridazin-3-one], the IC50 is < 100 nM.

As for `O=c1[nH]ncc(N2Cc3cccc(F)c3C2)c1Cl` [Example 60, 4-Chloro-5-(4-fluoro-2,3-dihydro-1H-isoindol-2-yl)-2,3-dihydropyridazin-3-one], the IC50 fell in the range of 100 to 1000 nM.

As for `N#Cc1ccc(N2CCN(C(=O)c3cc(OCC4c5ccccc5CN4c4cn[nH]c(=O)c4C(F)(F)F)cnc3F)CC2)nc1` (centres unmarked) [Example 61, 6-(4-[[2-fluoro-5-([2-[6-oxo-5-(trifluoromethyl)-1,6-dihydropyridazin-4-yl]-2,3-dihydro-1H-isoindol-1-yl]methoxy)pyridin-3-yl]carbonyl]piperazin-1-yl)pyridine-3-carbonitrile], the half-inhibitory concentration (IC50) is < 100 nM.

For the compound `N#Cc1cnc(N2CCN(C(=O)c3cc(OCC4c5ccccc5CN4c4cn[nH]c(=O)c4C(F)(F)F)cnc3F)CC2)nc1` (centres unmarked) [Example 62, 2-(4-[[2-fluoro-5-([2-[6-oxo-5-(trifluoromethyl)-1,6-dihydropyridazin-4-yl]-2,3-dihydro-1H-isoindol-1-yl]methoxy)pyridin-3-yl]carbonyl]piperazin-1-yl)pyrimidine-5-carbonitrile], the IC50 was < 100 nM.

Take `N#Cc1ccc(NCCC(=O)Nc2cncc(OCC3c4ccccc4CN3c3cn[nH]c(=O)c3C(F)(F)F)c2)nc1` (centres unmarked) [Example 63, 3-[(5-cyanopyridin-2-yl)amino]-N-[5-([2-[6-oxo-5-(trifluoromethyl)-1,6-dihydropyridazin-4-yl]-2,3-dihydro-1H-isoindol-1-yl]methoxy)pyridin-3-yl]propanamide]: the IC50 was < 100 nM.

On to `N#Cc1cnc(N2CCN(C(=O)c3cncc(OC[C@@H]4CCCN4c4cn[nH]c(=O)c4C(F)(F)F)c3)CC2)nc1` [Example 65, 2-[4-[(5-[[(2S)-1-[6-oxo-5-(trifluoromethyl)-1,6-dihydropyridazin-4-yl]pyrrolidin-2-yl]methoxy]pyridin-3-yl)carbonyl]piperazin-1-yl]pyrimidine-5-carbonitrile], for which the IC50 was < 100 nM.

Take `N#Cc1ccc(N2CCN(C(=O)c3nccc(OC[C@@H]4CCCN4c4cn[nH]c(=O)c4C(F)(F)F)n3)CC2)nc1` [Example 66, 6-[4-[(4-[[(2S)-1-[6-oxo-5-(trifluoromethyl)-1,6-dihydropyridazin-4-yl]pyrrolidin-2-yl]methoxy]pyrimidin-2-yl)carbonyl]piperazin-1-yl]pyridine-3-carbonitrile]: the concentration for half-maximal inhibition (IC50) was < 100 nM.

Regarding `N#Cc1ccc(N2CCN(C(=O)c3cc(OC[C@@H]4CCCN4c4cn[nH]c(=O)c4C(F)(F)F)ccc3F)CC2)nc1` [Example 67, 6-[4-[(2-fluoro-5-[[(2S)-1-[6-oxo-5-(trifluoromethyl)-1,6-dihydropyridazin-4-yl]pyrrolidin-2-yl]methoxy]phenyl)carbonyl]piperazin-1-yl]pyridine-3-carbonitrile], the IC50 was < 100 nM.

The term IC50 denotes the concentration that gives 50% inhibition. A low value points to inhibition by little substance.
